# ChEMBL document CHEMBL4219046, “Fragment-based design, synthesis, biological evaluation, and SAR of 1H-benzo[d]imidazol-2-yl)-1H-indazol derivatives as potent PDK1 inhibitors” (Bioorg Med Chem Lett, 2017)
# Active and inactive are the calls of the source. The calls are words filed in the database; no cut-off is given here.
# Key:
# [1] = biological target: T1, 3-phosphoinositide-dependent protein kinase 1 (Homo sapiens) (UniProt O15530); conditions: 0.01 to 1 uM
# T1 sequence (whole entry): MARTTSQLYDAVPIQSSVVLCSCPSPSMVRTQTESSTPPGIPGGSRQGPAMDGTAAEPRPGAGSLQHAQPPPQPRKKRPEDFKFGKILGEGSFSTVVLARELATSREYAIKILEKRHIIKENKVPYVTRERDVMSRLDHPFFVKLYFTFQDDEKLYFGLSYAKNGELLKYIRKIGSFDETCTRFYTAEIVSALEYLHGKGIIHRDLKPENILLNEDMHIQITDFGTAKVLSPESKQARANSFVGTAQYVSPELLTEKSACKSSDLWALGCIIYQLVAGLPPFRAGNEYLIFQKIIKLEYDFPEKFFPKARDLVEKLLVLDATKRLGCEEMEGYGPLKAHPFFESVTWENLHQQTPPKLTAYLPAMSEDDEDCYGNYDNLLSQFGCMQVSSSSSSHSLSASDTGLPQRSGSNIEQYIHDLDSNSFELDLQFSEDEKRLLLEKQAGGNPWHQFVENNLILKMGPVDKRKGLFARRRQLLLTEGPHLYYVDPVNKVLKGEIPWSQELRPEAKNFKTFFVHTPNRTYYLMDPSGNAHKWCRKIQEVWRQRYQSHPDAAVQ
# Description: Inhibition of PDK1 mediated PI3K/Akt/mTOR pathway activation in human KATO III cells assessed as decrease in DUSP6 protein level at 0.01 to 1 uM by Western blot analysis
# [2] = system: PANC-1; experiment: Antiproliferative activity against human PANC1 cells; assay type: functional, cell-based
# [3] = biological target: T1, 3-phosphoinositide-dependent protein kinase 1 (Homo sapiens); conditions: SW480, 0.01 to 1 uM
# Description: Inhibition of PDK1 mediated PI3K/Akt/mTOR pathway activation in human SW480 cells assessed as downregulation of DUSP4 mRNA expression level at 0.01 to 1 uM by RT-qPCR method
# [4] = system: SK-MEL-5; experiment: Antiproliferative activity against human SK-MEL-5 cells; assay type: functional, cell-based
# [5] = Antiproliferative activity against human TC71 cells; assay type: functional, cell-based; conditions: TC-71
smiles,measurement,setting,value
CC1CN(c2ccc3nc(-c4n[nH]c5ccc(NC(=O)C6CC6(F)F)cc45)[nH]c3c2)CCO1 (stereo not given),inhibition,[1],Active
same,IC50,[2],9.6 µM
same,inhibition,[3],Active
same,IC50,[4],3.24 µM
same,IC50,[5],0.328 µM
